# Laboratory results from US8088804B2, “N-hydroxyamide derivatives possessing antibacterial activity” (Pfizer Inc., priority 2005, dated 2012).
# Experiments:
# [1] = tested on: E. coli (2); assay: Susceptibility testing (MIC, CLSI microdilution); assay type: cell-based, Escherichia coli; settings: 20 h at 35° C., in µg/mL (unit assumed)
# Procedure: (§1) Compounds were tested following the microdilution method of CLSI (Clinical and Laboratory Standards Institute. Methods for dilution antimicrobial susceptibility tests for bacteria that grow aerobically; Approved standard—sixth edition. CLSI document M7-A5, CLSI, Wayne, Pa. 2003). Assays were performed in sterile plastic 96-well microtiter trays with round bottom wells (Greiner).
# (§2) Stock solutions of test compounds and control antibiotics were prepared at 10 mg/ml in DMSO. Serial 2-fold dilutions of each drug were performed in a microtiter plate across each row using DMSO as solvent at 100-fold the desired final concentration. Wells in columns #1-11 contain drug and column #12 was kept as a growth control for the organism with no drug. Each well in the mother plate was diluted with sterile deionized water and DMSO, mixed, and volumes of 10 μl distributed to each well in the resulting assay plates.
# (§3) Stock cultures were prepared using the Microbank™ method (Pro-Lab Diagnostics) and stored at −80° C. To propagate each strain, one bead was removed from the frozen vial and aseptically streaked onto Trypticase Soy Agar (Difco) which were incubated at 35° C. Standardized inocula were prepared using the direct colony suspension method according to CLSI guidelines (Clinical and Laboratory Standards Institute. Methods for dilution antimicrobial susceptibility tests for bacteria that grow aerobically; Approved standard—sixth edition. CLSI document M7-A5, CLSI, Wayne, Pa., 2003). Isolated colonies were selected from an 18-24 hr agar plate and resuspended in 0.9% sterile saline to match a 0.5 McFarland turbidity standard using a calorimeter (Vitek) at 80% of transmitance. The suspension was used within 15 minutes of preparation.
# (§4) Mueller-Hinton Broth (MHB) (Difco) was prepared at a 1.1× concentration and supplemented with Ca++ and Mg++ as recommended by CLSI. For each organism, the standardized suspension was diluted 1:180 into appropriate growth medium in a sterile reservoir. After mixing, wells in the drug-containing assay plates were inoculated with a volume of 90 μl. Thus, for each minimum inhibitory concentration (MIC) determination, each well contains a final volume of 100 μl with an inoculum size of approximately 5×10^5 colony forming units (cfu)/ml and no more than 1% DMSO.
# (§5) The completed microtiter plates were incubated 20 h at 35° C. in ambient air. Optical density of each well was determined at 600 nm using a VersaMax Microplate reader (Molecular Devices, Sunnyvale, Calif.). The MIC was defined as the lowest drug concentration causing complete suppression of visible bacterial growth.
# [2] = tested on: E. coli tolC; assay: Susceptibility testing (MIC, CLSI microdilution); assay type: cell-based, Escherichia coli; settings: 20 h at 35° C., unit assumed
# Procedure: as §1, §2, §3, §4, §5
# [3] = tested on: H. influen.; assay: Susceptibility testing (MIC, CLSI microdilution); assay type: cell-based, Haemophilus influenzae; settings: 20 h at 35° C., unit assumed
# Procedure: as §1, §2, §3, §4, §5
# [4] = tested on: K. pneu.; assay: Susceptibility testing (MIC, CLSI microdilution); assay type: cell-based, Klebsiella pneumoniae; settings: 20 h at 35° C., unit assumed
# Procedure: as §1, §2, §3, §4, §5
# [5] = tested on: P. aerug. Hypersuc; assay: Susceptibility testing (MIC, CLSI microdilution); assay type: cell-based, Pseudomonas aeruginosa; settings: 20 h at 35° C., Δ efflux, hypersusceptible strain, unit assumed
# Procedure: as §1, §2, §3, §4, §5
# [6] = tested on: P. aerug. (2); assay: Susceptibility testing (MIC, CLSI microdilution); assay type: cell-based, Pseudomonas aeruginosa; settings: 20 h at 35° C., in µg/mL (unit assumed)
# Procedure: as §1, §2, §3, §4, §5
# [7] = target: P. ae LpxC enzyme (Pseudomonas aeruginosa, UniProt P47205); assay: Enzyme inhibition testing (fluorescamine assay); assay type: biochemical
# Procedure: Compounds were tested based on a published method (Wang W., 2001, Anal Biochem, 290, 338-46) with modifications. Enzyme assays were performed in the assay buffer (50 mM HEPES, pH8, 0.005% Brij, 50 μM ZnSO4, 1 mg/ml BSA) in 96-well V-bottom microtiter plates.
# Stock solutions of test compounds and control antibiotics are prepared at 10 mg/ml in DMSO and are diluted in the assay buffer to 6-fold the final testing concentration. 5 μl compound dilution is distributed to the well of the assay plate. EDTA is used as positive control and the final concentration in assay is 12.5 mM.
# P. ae LpxC enzyme dilution in the assay buffer is added to the compound in plate and pre-incubated with the compound at room temperature for 10 min. LpxC substrate is added to initiate the enzyme reaction and the final enzyme and substrate concentrations are 1.2 μM and 0.4 mM, respectively. The reaction continues at RT for 4 hrs before diluted with 45 μl of Borate buffer (0.4 M, pH9), followed by addition of 40 μl derivatization reagent (fluorescamine 2 mg/ml DMF). This mixture is incubated at RT for 10 min followed by addition of 150 μl DMF/H2O (1:1). The resulting solution is loaded onto Millipore filter unit (Microcon 10 k MWCO) and spun at 13 k rpm on bench top centrifuge for 15 min. 100 μl of this filtrate is transferred to a low fluorescence clear-bottom 96-well plate (Corning) and the fluorescence is detected at ex360 nm and em465 nm on a Tecan fluorescence plate reader. The percent inhibition is calculated based on EDTA produces 100% inhibition and negative control produces 100% activity.
# [8] = @0.1 μg/ml, read-out: ENZYME (percent inhibition)
# Sequence of P. ae LpxC enzyme (P47205 whole entry): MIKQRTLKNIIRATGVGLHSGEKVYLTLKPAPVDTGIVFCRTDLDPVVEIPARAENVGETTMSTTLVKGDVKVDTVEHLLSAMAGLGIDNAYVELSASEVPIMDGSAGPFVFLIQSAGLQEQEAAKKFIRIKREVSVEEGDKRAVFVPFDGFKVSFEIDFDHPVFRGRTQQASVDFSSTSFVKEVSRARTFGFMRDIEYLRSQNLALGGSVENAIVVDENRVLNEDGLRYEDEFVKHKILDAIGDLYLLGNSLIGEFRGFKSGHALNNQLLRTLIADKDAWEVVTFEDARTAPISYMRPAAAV
SMILES,MIC E. coli (2) [1],MIC E. coli tolC [2],MIC H. influen. [3],MIC K. pneu. [4],MIC P. aerug. Hypersuc [5],MIC P. aerug. (2) [6],"inhibition at 0.1 µg/mL [7, 8]","inhibition at 0.5 µg/mL ([7]; @0.5 μg/ml, read-out: ENZYME (percent inhibition))",ENZYME (percent inhibition) ([7]; @0.1 μg/ml),"inhibition at 10 µg/mL ([7]; @10 μg/ml, read-out: ENZYME (percent inhibition))"
"CCOc1ccc(-c2ccc(C(=O)N3CCS(=O)(=O)[C@H]3C(=O)NO)cc2)cc1 [Compound 33, (S)-3-(4′-Ethoxybiphenylcarbonyl)-N-hydroxythiazolidinesulfone-2-carboxamide]",>64,≤ 0.06 µg/mL,16 µg/mL,32 µg/mL,2 µg/mL,4-16,12%,,,
"CCc1ccc(-c2ccc(C(=O)N3CC[C@@H](N)[C@H]3C(=O)NO)cc2)cc1 [Compound 34, (2S,3R)-3-Amino-N-hydroxy-1-(4′-ethylbiphenylcarbonyl)pyrrolidine-2-carboxamide]",>64,> 64 µg/mL,> 64 µg/mL,> 64 µg/mL,64 µg/mL,16-32,,93%,,
"O=C(NO)[C@H]1N(C(=O)c2ccc(Oc3ccccc3)cc2)CCS1(=O)=O [Compound 35, (S)-N-Hydroxy-3-(4-phenoxybenzoyl)thiazolidinesulfone-2-carboxamide]",>64,0.125 µg/mL,> 64 µg/mL,> 64 µg/mL,> 64 µg/mL,>64,21%,,,
"O=C(NO)[C@H]1N(C(=O)c2ccc(-c3ccc(F)cc3)cc2)CCS1(=O)=O [Compound 37, (S)-3-(4′-Fluorobiphenylcarbonyl)-N-hydroxythiazolidinesulfone-2-carboxamide]",>64,≤ 0.06 µg/mL,> 64 µg/mL,> 64 µg/mL,2 µg/mL,4-32,32%,,42%,
"O=C(NO)[C@H]1N(C(=O)c2ccc(-c3ccc(C(F)(F)F)cc3)cc2)CCS1(=O)=O [Compound 38, (S)-3-(4′-(Trifluoromethyl)biphenylcarbonyl)-N-hydroxythiazolidinesulfone-2-carboxamide]",>64,≤ 0.06 µg/mL,> 64 µg/mL,> 64 µg/mL,8 µg/mL,32,30%,,,
"COc1ccc(C(=O)N2CC[C@@H](O)[C@H]2C(=O)NO)cc1SC(F)(F)F [Compound 40, (2S,3R)-3-Hydroxy-N-hydroxy-1-(4-methoxy-3-trifluoromethylsulfanyl-benzoyl)-pyrrolidine-2-carboxamide]",>64,32 µg/mL,> 64 µg/mL,64 µg/mL,> 64 µg/mL,>64,,,,52%
